Drawing on patent US20130180014A1, “Pyridine Compounds for Controlling Invertebrate Pests III” (BASF SE, priority 2010, published 2013), this text covers mortality for one compound.

Some results are limits rather than exact numbers.

What all share (format): in vivo
One experiment has as its system Aphis craccivora. Description: Cowpea aphid, spray on potted cowpea plants. Conditions: cowpea plants sprayed, assessed after 24, 72 and 120 hours, in comparison with untreated controls. How it is done: The active compounds were formulated in 50:50 (vol/vol) acetone:water. The test solution was prepared at the day of use.
Potted cowpea plants colonized with 100-150 aphids of various stages were sprayed after the pest population had been recorded. Population reduction was assesed after 24, 72, and 120 hours.

The next experiment deals with Aphis gossypii. Nature of the experiment: Cotton aphid, mixed life stages, method a) cotyledon dip. Conditions: cotton cotyledons dipped, in comparison with untreated controls. From the text: (§1) The active compounds were formulated in 50:50 (vol/vol) acetone:water and 100 ppm Kinetica™ surfactant.
Cotton plants at the cotyledon stage (one plant per pot) were infested by placing a heavily infested leaf from the main colony on top of each cotyledon. The aphids were allowed to transfer to the host plant overnight, and the leaf used to transfer the aphids was removed. The cotyledons were dipped in the test solution and allowed to dry. After days, mortality counts were made.

The subject of experiment [1] is Myzus persicae. Description: Green peach aphid, systemic, artificial diet under membrane in 96-well plate. Conditions: 72 h, 3 days, in comparison with untreated controls. From the text:
For evaluating control of green peach aphid (Myzus persicae) through systemic means the test unit consisted of 96-well-microtiter plates containing liquid artificial diet under an artificial membrane.
The compounds were formulated using a solution containing 75% vol/vol water and 25% vol/vol DMSO. Different concentrations of formulated compounds were pipetted into the aphid diet, using a custom built pipetter, at two replications. After application, 5 to 8 adult aphids were placed on the artificial membrane inside the microtiter plate wells. The aphids were then allowed to suck on the treated aphid diet and incubated at about 23+1° C. and about 50+5% relative humidity for 3 days. Aphid mortality and fecundity was then visually assessed.

Experiment [2] deals with Myzus persicae. Description: Green peach aphid, mixed life stages, method a) pepper leaf dip. Conditions: foliar, 120 h, pepper leaves dipped, after 5 days, in comparison with untreated controls.
From the text: as §1
Pepper plants in the 2nd leaf-pair stage (variety ‘California Wonder’) were infested with approximately 40 laboratory-reared aphids by placing infested leaf sections on top of the test plants. The leaf sections were removed after 24 hr. The leaves of the intact plants were dipped into gradient solutions of the test compound and allowed to dry. Test plants were maintained under fluorescent light (24 hour photoperiod) at about 25° C. and 20-40% relative humidity. Aphid mortality on the treated plants, relative to mortality on check plants, was determined after 5 days.

A further experiment deals with Megoura viciae. Nature of the experiment: Vetch aphid, bean leaf disk in microtiterplate. The settings on record: foliar, 144 h, test solution 2500 mg/L, leaf disks sprayed with 2.5 μl, 6 days. How it is done:
The active compounds were formulated in 1:3 (vol/vol) DMSO:water with different concentrations of formulated compounds.
Bean leaf disks were placed into microtiterplates filled with 0.8% agar-agar and 2.5 ppm OPUS™. The leaf disks were sprayed with 2.5 μl of the test solution and 5 to 8 adult aphids were placed into the microtiterplates which were then closed and kept at 23±1° C. and 50±5% relative humidity under fluorescent light for 6 days. Mortality was assessed on the basis of vital, reproduced aphids. Aphid mortality and fecundity was then visually assessed.

Regarding `O=C(Nc1cccnc1)c1cncc(C(F)(F)F)c1` [Example 18, N-Pyridin-3-yl-5-trifluoromethylnicotinamide], the mortality at 300 ppm is no less than 90% in the experiment on Aphis craccivora, no less than 75% with Aphis gossypii and no less than 90% with Myzus persicae [2]. The compound also had a mortality at 2500 ppm in the experiment with Myzus persicae [1] of 100%. Moreover, the mortality at 2500 µg/mL in the experiment on Megoura viciae is no less than 90%.

The term mortality denotes the percentage killed. A high value points to fewer survivors.
